In patent US20240254129A1, “HETEROCYCLIC COMPOUNDS AND USES THEREOF” (Kumquat Biosciences Inc., priority 2021, published 2024):
Like-named read-outs stand apart in the source and are kept apart here.

What was measured:
[1] = target: GST-tagged K-Ras mutant / His-tagged hSOS1 (Homo sapiens, UniProt P01116); assay: HTRF assay, K-Ras mutant / SOS1 interaction; format: binding; settings: read-out: IC50 against mutant Kras
Summary of the method: (§1)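 Compounds, in duplicate at six concentrations from 10 μM to 0.01 μM, are added to GST-K-Ras premixed with anti-GST-Eu(K), then His-hSOS1 with anti-6His-XL665. After roughly 10 min, FRET is measured and the emission ratio is used to derive IC50.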

wildtype Kras / hSOS1 = target: T1, wildtype Kras / hSOS1 (Homo sapiens, UniProt P01116); assay: HTRF assay, wildtype Kras / SOS1 interaction; format: binding; settings: read-out: IC50 against wildtype Kras
T1 construct: made in house; host or cells: E. coli BL21 (DE3)
Summary of the method: as §1

[2] = compound nos. 201-213, general methodology of example 5
[3] = compound nos. 102-196, general methodology of example 5

T1 sequence (P01116 1-188 isoform P01116-2): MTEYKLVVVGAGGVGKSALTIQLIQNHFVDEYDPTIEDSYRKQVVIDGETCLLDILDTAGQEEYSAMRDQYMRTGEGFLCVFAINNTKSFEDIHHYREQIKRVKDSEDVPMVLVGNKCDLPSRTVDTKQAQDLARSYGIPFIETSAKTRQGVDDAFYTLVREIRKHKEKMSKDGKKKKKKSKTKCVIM
Chain of GST-tagged K-Ras mutant / His-tagged hSOS1 (P01116 whole entry G12D, form open): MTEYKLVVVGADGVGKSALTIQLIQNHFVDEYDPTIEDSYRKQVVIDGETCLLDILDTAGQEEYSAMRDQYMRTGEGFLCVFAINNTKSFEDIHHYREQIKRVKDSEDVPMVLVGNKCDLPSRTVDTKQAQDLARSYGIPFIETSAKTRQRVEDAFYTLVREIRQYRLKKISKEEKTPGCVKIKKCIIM

Row | Compound | IC50 ([1]; compound nos. 401-703) | IC50 (wildtype Kras / hSOS1; compound nos. 401-703) | also measured
1 | Oc1cc(-c2c(Cl)cc3c(N4C[C@H]5CC[C@@H](C4)N5)nc(OC[C@@]45CCCN4C[C@H](F)C5)nc3c2F)c2ccccc2c1 [Compound 202, 4-(4-((1R,5S)-3,8-diazabicyclo[3.2.1]octan-3-yl)-6-chloro-8-fluoro-2-(((2R,7aS)-2-fluorotetrahydro-1H-pyrrolizin-7a(5H)-yl)methoxy)quinazolin-7-yl)naphthalen-2-ol] | – | – | IC50 [1, 2]: < 1.5 µM; IC50 (wildtype Kras / hSOS1; [2]): < 1.5 µM
2 | CN1CCC[C@H]1COc1nc(N2CCCC(C(=O)O)CC2)c2cc(Cl)c(-c3cccc4sc(N)nc34)c(F)c2n1 (stereo partly drawn) [Compound 535, 1-(7-(2-aminobenzo[d]thia-zol-4-yl)-6-chloro-8-fluoro-2-(((S)-1-methylpyrrolidin-2-yl)methoxy)quinazolin-4-yl)azepane-4-carboxylic acid] | < 0.5 µM | > 0.5 µM | –
3 | Nc1nc2c(-c3c(F)cc4c(N5CC6CCC(C5)N6)nc(OCC56CCCN5CCC6)nc4c3F)ccc(F)c2s1 [Compound 680, 4-(4-(3,8-diazabicyclo-[3.2.1]octan-3-yl)-6,8-difluoro-2-((tetrahydro-1H-pyrrolizin-7a(5H)-yl)methoxy)quinazolin-7-yl)-7-fluorobenzo[d]thiazol-2-amine] | < 0.5 µM | > 0.5 µM | –
4 | Nc1nc2c(-c3cc4nc(OCC56CCCN5CCC6)nc(N5CC6CCC(C5)N6)c4cc3Cl)ccc(F)c2s1 [Compound 591, 4-(4-(3,8-diazabicyclo-[3.2.1]octan-3-yl)-6-chloro-2-((tetrahydro-1H-pyrrol-izin-7a(5H)-yl)methoxy)-quinazolin-7-yl)-7-fluoro-benzo[d]thiazol-2-amine] | < 0.5 µM | > 0.5 µM | –
5 | N#Cc1ccc2ccccc2c1-c1c(Cl)cc2c(N3CC4CCC(C3)N4)nc(OC[C@@]34CCCN3C[C@H](F)C4)nc2c1F [Compound 558, 1-(4-(3,8-diazabicyclo-[3.2.1]octan-3-yl)-6-chloro-8-fluoro-2-(((2R,7aS)-2-fluorotetrahydro-1H-pyrrol-izin-7a(5H)-yl)methoxy)-quinazolin-7-yl)-2-naph-thonitrile] | > 0.5 µM | > 0.5 µM | –
6 | N#Cc1c(N)sc2c(F)ccc(-c3c(Cl)cc4c(N5CCCOCC5)nc(OC[C@@]56CCCN5C[C@H](F)C6)nc4c3F)c12 [Compound 598, 2-amino-4-(6-chloro-8-fluoro-2-(((2R,7aS)-2-fluorotetrahydro-1H-pyrrol-izin-7a(5H)-yl)methoxy)-4-(1,4-oxazepan-4-yl)quin-azolin-7-yl)-7-fluorobenzo-[b]thiophene-3-carbonitrile] | < 0.5 µM | > 0.5 µM | –
7 | Nc1nc2c(-c3c(Cl)cc4c(N5CCCN(S(=O)(=O)C6CC6)CC5)nc(OC[C@@]56CCCN5C[C@H](F)C6)nc4c3F)ccc(F)c2s1 [Compound 435, 4-(6-chloro-4-(4-(cyclo-propylsulfonyl)-1,4-diazepan-1-yl)-8-fluoro-2-(((2R,7aS)-2-fluorotetra-hydro-1H-pyrrolizin-7a(5H)-yl)methoxy)quinazolin-7-yl)-7-fluorobenzo[d]thiazol-2-amine] | < 0.5 µM | < 0.5 µM | –
8 | CO[C@@H]1C[C@@H](COc2nc(N3CCNCC(F)(F)C3)c3cc(Cl)c(-c4cccc5sc(N)nc45)c(F)c3n2)N(C)C1 [Compound 121, 4-(6-chloro-4-(6,6-difluoro-1,4-diazepan-1-yl)-8-fluoro-2-(((2S,4R)-4-methoxy-1-methylpyrrolidin-2-yl)-methoxy)quinazolin-7-yl)-benzo[d]thiazol-2-amine] | – | – | IC50 [1, 3]: < 0.5 µM; IC50 (wildtype Kras / hSOS1; [3]): < 0.5 µM
9 | N#Cc1c(N)sc2c(F)ccc(-c3c(Cl)cc4c(N5CC6CCC(C5)O6)nc(OC[C@@]56CCCN5C[C@H](F)C6)nc4c3F)c12 [Compound 473, 4-(4-(8-oxa-3-azabicyclo-[3.2.1]octan-3-yl)-6-chloro-8-fluoro-2-(((2R,7aS)-2-fluorotetrahydro-1H-pyrrol-izin-7a(5H)-yl)methoxy)-quinazolin-7-yl)-2-amino-7-fluorobenzo[b]thiophene-3-carbonitrile] | < 0.5 µM | < 0.5 µM | –
10 | CNCCN1CCCN(c2nc(OCC34CCCN3CCC4)nc3c(F)c(-c4ccc(F)c5sc(N)nc45)c(Cl)cc23)CC1 [Compound 575, 4-(6-chloro-8-fluoro-4-(4-(2-(methylamino)ethyl)-1,4-diazepan-1-yl)-2-((tetra-hydro-1H-pyrrolizin-7a(5H)-yl)methoxy)quinazolin-7-yl)-7-fluorobenzo[d]thiazol-2-amine] | < 0.5 µM | > 0.5 µM | –
11 | N#Cc1c(N)sc2cccc(-c3c(Cl)cc4c(N5CC6CCC(C5)N6)nc(OC[C@@]56CCCN5C[C@H](F)C6)nc4c3F)c12 [Compound 552, 4-(4-(3,8-diazabicyclo-[3.2.1]octan-3-yl)-6-chloro-8-fluoro-2-(((2R,7aS)-2-fluorotetrahydro-1H-pyrrol-izin-7a(5H)-yl)methoxy)-quinazolin-7-yl)-2-amino-benzo[b]thiophene-3-carbonitrile] | < 0.5 µM | > 0.5 µM | –
12 | Fc1c(Br)c(Cl)cc2c(N3CC4CCC(C3)N4)nc(OC[C@@]34CCCN3C[C@H](F)C4)nc12 [Compound 479, 4-(3,8-diazabicyclo[3.2.1]-octan-3-yl)-7-bromo-6-chloro-8-fluoro-2-(((2R,7aS)-2-fluorotetra-hydro-1H-pyrrolizin-7a(5H)-yl)methoxy)quin-azoline] | > 0.5 µM | < 0.5 µM | –
13 | CC1CCCN(c2nc(OC[C@@H]3CCCN3C)nc3c(F)c(-c4cccc5sc(N)nc45)c(Cl)cc23)CC1 (stereo partly drawn) [Compound 416, 4-(6-chloro-8-fluoro-4-(4-methylazepan-1-yl)-2-(((S)-1-methylpyrrolidin-2-yl)-methoxy)quinazolin-7-yl)-benzo[d]thiazol-2-amine] | > 0.5 µM | < 0.5 µM | –
14 | Cc1ccnc(C(C)C)c1-n1c(=O)nc(N2CCNCC(F)(F)C2)c2cc(F)c(-c3c(O)cccc3F)nc21 [Compound 195, 4-(6,6-difluoro-1,4-diazepan-1-yl)-6-fluoro-7-(2-fluoro-6-hydroxyphenyl)-1-(2-isopropyl-4-methylpyridin-3-yl)pyrido[2,3-d]pyrimidin-2(1H)-one] | – | – | IC50 [1, 3]: > 0.5 µM; IC50 (wildtype Kras / hSOS1; [3]): > 0.5 µM
15 | Nc1nc2c(-c3c(Cl)cc4c(N5CC6CCC(CO)(C5)N6)nc(OC[C@@]56CCCN5C[C@H](F)C6)nc4c3F)ccc(F)c2s1 (stereo partly drawn) [Compound 518, (3-(7-(2-amino-7-fluoroben-zo-[d]thiazol-4-yl)-6-chloro-8-fluoro-2-(((2R,7aS)-2-fluorotetrahydro-1H-pyrrol-izin-7a(5H)-yl)methoxy)-quinazolin-4-yl)-3,8-diaza-bicyclo[3.2.1]octan-1-yl)-methanol] | < 0.5 µM | > 0.5 µM | –
16 | CN(C)CC1CN(c2nc(OCC34CCCN3CCC4)nc3c(F)c(-c4ccc(F)c5sc(N)nc45)c(Cl)cc23)CCCO1 (stereo not shown) [Compound 681, 4-(6-chloro-4-(2-((dimethyl-amino)methyl)-1,4-oxaze-pan-4-yl)-8-fluoro-2-((tetra-hydro-1H-pyrrolizin-7a(5H)-yl)methoxy)quinazolin-7-yl)-7-fluorobenzo[d]thiazol-2-amine] | < 0.5 µM | > 0.5 µM | –
17 | Nc1nc2c(-c3c(Cl)cc4c(N5CCNCC(F)(F)C5)nc(OC[C@@]56CCCN5C[C@H](F)C6)nc4c3F)cccc2o1 [Compound 174, 4-(6-chloro-4-(6,6-difluoro-1,4-diazepan-1-yl)-8-fluoro-2-(((2R,7aS)-2-fluorotetra-hydro-1H-pyrrolizin-7a(5H)-yl)methoxy)quinazolin-7-yl)benzo[d]oxazol-2-amine] | – | – | IC50 [1, 3]: < 0.5 µM; IC50 (wildtype Kras / hSOS1; [3]): < 0.5 µM
